Test results as given in ChEMBL document CHEMBL1201862, “PubChem BioAssay data set” (2004).
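The compound was tested at five concentrations on cells cultured in 96-well plates, with a 48-hour exposure period. The concentration for 50% growth inhibition is given as GI50.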 Activity calls are given as the source filed them. Cut-off read from the data, not from the text of the source: active = GI50 up to about 1.1 µM and inactive = higher.

Legend:
Assay in all cases: DTP human tumour cell line panel, 48 h
[1] = test system: SR
[2] = test system: U-251
[3] = test system: OVCAR-4
[4] = test system: COLO 205
[5] = test system: K562
[6] = test system: 786-0
[7] = test system: IGROV-1
[8] = test system: SNB-19
[9] = test system: TK-10
[10] = test system: SF-539
[11] = test system: MDA-N
[12] = test system: CAKI-1
[13] = test system: RXF 393
[14] = test system: NCI-H460
[15] = test system: NCI-H226
[16] = test system: DU-145
[17] = test system: UACC-257
[18] = test system: MDA-MB-231
[19] = test system: SNB-75
[20] = test system: OVCAR-3
[21] = test system: PC-3
[22] = test system: SK-MEL-5
[23] = test system: HOP-62
[24] = test system: NCI-H23
[25] = test system: KM12
[26] = test system: MCF7
[27] = test system: LOX IMVI
[28] = test system: SF-295
[29] = test system: MDA-MB-435
[30] = test system: SK-MEL-28
[31] = test system: HCC 2998
[32] = test system: Hs-578T
[33] = test system: HOP-92
[34] = test system: ACHN
[35] = test system: HCT-116
[36] = test system: SF-268
[37] = test system: SN12C
[38] = test system: SK-MEL-2
[39] = test system: A498
[40] = test system: NCI/ADR-RES
[41] = test system: UACC-62
[42] = test system: OVCAR-5
[43] = test system: RPMI-8226
[44] = test system: HCT-15
[45] = test system: OVCAR-8
[46] = test system: NCI-H522
[47] = test system: SK-OV-3
[48] = test system: UO-31
[49] = test system: A549
[50] = test system: SW-620
[51] = test system: Malme-3M
[52] = test system: EKVX
[53] = test system: BT-549
[54] = test system: T47D
[55] = test system: M14
[56] = test system: MOLT-4
[57] = test system: CCRF-CEM
[58] = test system: HT-29

COc1cc2cc(C(=O)N3CC(CCl)c4c3cc(NCCN)c3ccccc43)[nH]c2c(OC)c1OC (configuration not stated)
GI50 [1]: < 10 nM (active) | GI50 [2]: < 10 nM (active) | GI50 [3]: 11.6 nM (active) | GI50 [4]: 11.2 nM (active) | GI50 [5]: < 10 nM (active) | GI50 [6]: < 10 nM (active) | GI50 [7]: < 10 nM (active) | GI50 [8]: < 10 nM (active) | GI50 [9]: < 10 nM (active) | GI50 [10]: < 10 nM (active) | GI50 [11]: < 10.5 nM (active) | GI50 [12]: < 10 nM (active) | GI50 [13]: < 10 nM (active) | GI50 [14]: < 10 nM (active) | GI50 [15]: 11.7 nM (active) | GI50 [16]: < 10 nM (active) | GI50 [17]: 10.5 nM (active) | GI50 [18]: < 10 nM (active) | GI50 [19]: 10.2 nM (active) | GI50 [20]: 12.3 nM (active) | GI50 [21]: < 10 nM (active) | GI50 [22]: < 10 nM (active) | GI50 [23]: < 10 nM (active) | GI50 [24]: < 10 nM (active) | GI50 [25]: < 10 nM (active) | GI50 [26]: < 10 nM (active) | GI50 [27]: < 10 nM (active) | GI50 [28]: < 10 nM (active) | GI50 [29]: < 10 nM (active) | GI50 [30]: 13.4 nM (active) | GI50 [31]: < 10 nM (active) | GI50 [32]: < 10 nM (active) | GI50 [33]: < 10 nM (active) | GI50 [34]: < 10 nM (active) | GI50 [35]: < 10 nM (active) | GI50 [36]: < 10 nM (active) | GI50 [37]: < 10 nM (active) | GI50 [38]: < 10 nM (active) | GI50 [39]: < 10 nM (active) | GI50 [40]: < 10 nM (active) | GI50 [41]: < 10 nM (active) | GI50 [42]: < 10 nM (active) | GI50 [43]: < 10 nM (active) | GI50 [44]: 10.5 nM | GI50 [45]: < 10 nM (active) | GI50 [46]: < 10 nM (active) | GI50 [47]: < 18.9 nM (active) | GI50 [48]: < 10 nM (active) | GI50 [49]: < 10 nM (active) | GI50 [50]: < 10 nM (active) | GI50 [51]: < 10 nM (active) | GI50 [52]: < 12.6 nM (active) | GI50 [53]: 33.3 nM (active) | GI50 [54]: < 10 nM (active) | GI50 [55]: < 10 nM (active) | GI50 [56]: < 10 nM (active)

O=C(O)CCN1C(=S)CSC1=S
GI50 [1]: 39700 nM (inactive) | GI50 [2]: > 100000 nM (inactive) | GI50 [3]: > 100000 nM (inactive) | GI50 [4]: > 100000 nM (inactive) | GI50 [5]: 78000 nM (inactive) | GI50 [6]: > 100000 nM (inactive) | GI50 [7]: > 100000 nM (inactive) | GI50 [8]: > 100000 nM (inactive) | GI50 [9]: > 100000 nM (inactive) | GI50 [10]: > 100000 nM (inactive) | GI50 [57]: 44200 nM (inactive) | GI50 [11]: > 100000 nM (inactive) | GI50 [12]: > 100000 nM (inactive) | GI50 [13]: > 100000 nM (inactive) | GI50 [14]: 88100 nM (inactive) | GI50 [15]: > 100000 nM (inactive) | GI50 [16]: > 100000 nM (inactive) | GI50 [17]: > 100000 nM (inactive) | GI50 [18]: > 100000 nM (inactive) | GI50 [19]: > 100000 nM (inactive) | GI50 [20]: > 100000 nM (inactive) | GI50 [21]: > 100000 nM (inactive) | GI50 [22]: > 100000 nM (inactive) | GI50 [23]: > 100000 nM (inactive) | GI50 [24]: > 100000 nM (inactive) | GI50 [25]: > 100000 nM (inactive) | GI50 [26]: 67500 nM (inactive) | GI50 [27]: 94400 nM (inactive) | GI50 [28]: > 100000 nM (inactive) | GI50 [29]: > 100000 nM (inactive) | GI50 [30]: > 100000 nM (inactive) | GI50 [32]: > 100000 nM (inactive) | GI50 [33]: > 100000 nM (inactive) | GI50 [34]: > 100000 nM (inactive) | GI50 [58]: > 100000 nM (inactive) | GI50 [35]: > 100000 nM (inactive) | GI50 [36]: > 100000 nM (inactive) | GI50 [37]: > 100000 nM (inactive) | GI50 [38]: > 100000 nM (inactive) | GI50 [39]: > 100000 nM (inactive) | GI50 [40]: > 100000 nM (inactive) | GI50 [41]: > 100000 nM (inactive) | GI50 [42]: > 100000 nM (inactive) | GI50 [43]: 54700 nM (inactive) | GI50 [44]: > 100000 nM | GI50 [45]: > 100000 nM (inactive) | GI50 [46]: 67800 nM (inactive) | GI50 [47]: > 100000 nM (inactive) | GI50 [49]: > 100000 nM (inactive) | GI50 [50]: > 100000 nM (inactive) | GI50 [51]: > 100000 nM (inactive) | GI50 [52]: > 100000 nM (inactive) | GI50 [53]: > 100000 nM (inactive) | GI50 [54]: > 100000 nM (inactive) | GI50 [55]: > 100000 nM (inactive) | GI50 [56]: 42000 nM (inactive)
